Read-outs that look alike come from different tables or passages of the source.
What was measured:
[1] = Preliminary ex-vitro trials: cholesterol solubility in human plasma
From the text: Limonene is commonly thought of as a solvent, having a KB value of 67.

human platelets [2] = experiment: Human platelet aggregation trial with platelet activating factor (PAF) as aggregating agent; type: cell-based
Experimental: (§1) Human platelet aggregation trials, using PAF and thrombin as aggregating agents, were conducted with gallic acid, catechin and amidated catechin multimers (made according to the process of Example 1). The protocol was as follows: Test compounds (50 μM gallic acid, 100 μM catechin and 3 μM amidated catechin multimer) were dissolved in water and 10 μl of sample was added to 1 ml aliquots of human platelets to give the final estimated vessel content concentration of 3 μM.^1 Next, human platelets at a concentration of 1×10^−7/ml were preincubated for ten minutes at 37° C. with either vehicle (contol) or with 3 μM of the amino-catechin multimer test compound. Then, either platelet activating factor (5×10^−10 μM) or thrombin (0.05 mg/ml) were added and aggregation was monitored over the next 10 minutes in a PACKS-4 Platelet Aggregation Chromogenic Kinetic System (Helena Lab., Beaumont, Tex.). ^1 The molar concentration of total product was 10 μM. […] For molar calculations, the molecular weight of the amino-catechin was presumed to be 300 daltons.

human platelets [3] = experiment: Human platelet aggregation trial with thrombin as aggregating agent; type: cell-based
Experimental: as §1

rat aortic rings = experiment: Contraction and endothelium dependent relaxation of rat aortic rings; settings: mean (±SEM)
Experimental: Male Sprague-Dawley rats (200-250 g) were euthanized with an overdose of sodium pentobarbital (100 mg/kg, i.p.) and bled. The thoracic aorta was excised and cleaned and rings 3-4 mm in length were cut, taking care not to disturb the endothelium The rings were suspended in tissue baths containing a physiologic salt solution. The solution was bubbled continuously with O2/CO2 (95%/5%), and maintained at 37° C. Contraction activity was recorded on a Grass polygraph. After equilibration for at least 1 h under 1.5 g of tension, tissues were contracted submaximally (approximately 80% of Emax) with 1 μM phenylephrine. […] This concentration of acetylcholine is sufficient to produce maximum endothelium dependent relaxation in intact rings.
Rings were washed with physiological salt solution three times over the next 45 min. prior to the subsequent testing. Beginning with a concentration determined in preliminary experiments to be below the threshold for relaxation, and increased until a relaxation of approximately 15% was achieved (relative to the relaxation induced by 3 μM acetycholine).

C=C(C)C1CC=C(C)CC1 (centres unmarked) [limonene, 4-isopropenyl-1-methylcyclohexene]
rate of plasma metabolizing excess cholesterol ([1]; minimum rate): ≥ 4 % per hour | increase of the rate of solubility of cholesterol ([1]; over a one hour period): 24%

O.Oc1cc(O)c2c(c1)O[C@H](c1ccc(O)c(O)c1)[C@@H](O)C2 [catechin]
inhibition of human platelet aggregation caused by platelet activating factor (human platelets [2]; 100 μM): no inhibition | inhibition of human platelet aggregation caused by thrombin (human platelets [3]; 100 μM): no inhibition

CNC[C@H](O)c1cccc(O)c1 [phenylephrine]
EC50 (rat aortic rings; rat aortic rings, read-out: EC50 value for phenylephrine (contractile effect)): 140 ± 20 nM

CC(=O)OCC[N+](C)(C)C [acetylcholine]
EC50 (rat aortic rings; rat aortic rings contracted with 1 μM phenylephrine, read-out: EC50 for EDR (endothelium dependent relaxation)): 120 ± 60 nM

O=C(O)c1cc(O)c(O)c(O)c1 [gallic acid]
inhibition of human platelet aggregation caused by platelet activating factor (human platelets [2]; 50 μM): no inhibition | inhibition of human platelet aggregation caused by thrombin (human platelets [3]; 50 μM): no inhibition

Reference: patent publication US6562864B1, “Catechin multimers as therapeutic drug delivery agents” (priority 1999, dated 2003)
